Measured values taken from PMC8901636, “Preclinical studies of Flonoltinib Maleate, a novel JAK2/FLT3 inhibitor, in treatment of JAK2^V617F-induced myeloproliferative neoplasms” (Blood Cancer Journal, 2022).
Read-outs that look alike come from different tables or passages of the source.

How the values were obtained:
[1] = PK and tissue distribution after repeated oral administration in Ba/F3-EPOR-JAK2^V617F tumor-bearing mice; assay type: in vivo; conditions: for Kp: spleen and plasma, po
[2] = test system: Ba/F3-EPOR-JAK2^V617F cells; experiment: PD study after repeated administration in Ba/F3-EPOR-JAK2^V617F tumor-bearing mice; assay type: in vivo
Description: For Ba/F3-EPOR-JAK2^V617F driven malignant model after repeated administration, tumor-bearing mice were randomly divided into 8 groups on the 10th day. Mice were sacrificed at 0, 0.25, 0.5, 1, 4, 8, 12, and 24 hours after the last oral administration, and tissue samples were harvested to determine the distribution of FM and PK parameters by UFLC-MS/MS. For PD studies, we weighed the spleen, and analyzed the ratio of GFP^+ in the spleen and PB by flow cytometry, and test the downstream pathway protein p-STAT5 (Y694, Cat. No. Ab32364) via Western Blot.
With the decrease of drug concentration, the level of p-STAT5 increased to a certain extent, but 12 hours after administration, the level of p-STAT5 still decreased (Fig. 5C). […] 71 ± 7. 91%, respectively. In addition, the weight of spleen was 267.2 ± 56.8 mg in the untreated group and 167.5 ± 52.9 mg in the repeated administration groups (12 hours after the last administration) (Fig. 5D and Fig. S4E).

Bioavailability [3] = conditions: rat, in vivo; rats; data not shown
Bioavailability [4] = conditions: dog, in vivo; dogs; data not shown
JAK1 = JAK1 (Homo sapiens, UniProt P23458); experiment: In vitro kinase assay; conditions: read-out: JAK1 Enzyme IC50
Ba/F3-JAK2^V617F cells = experiment: Ba/F3-JAK2^V617F disease model; conditions: for inhibition of the spleen growth: 22 days, figure prints it with a minus sign over Spleen Weight (mg); for median survival: vehicle 25 days
[5] = test system: Ba/F3-EPOR-JAK2^V617F cells; experiment: Ba/F3-EPOR-JAK2^V617F malignancy mouse model; conditions: for spleen suppression rate: 16 days; for median survival time: vehicle 19 days
[6] = BALB/c nude, mouse, plasma, oral, 30 mg/kg, repeated, read-out: FM concentration, Plasma
[7] = BALB/c nude, mouse, spleen, oral, 30 mg/kg, repeated, read-out: FM concentration, Spleen
[8] = BALB/c nude, mouse, stomach, oral, 30 mg/kg, repeated, read-out: FM concentration, Stomach
[9] = BALB/c nude, mouse, Plasma, repeated oral 30 mg/kg
[10] = BALB/c nude, mouse, Spleen, repeated oral 30 mg/kg
[11] = before the last administration, 30 mg/kg repeated

JAK1, sequence (P23458 whole entry): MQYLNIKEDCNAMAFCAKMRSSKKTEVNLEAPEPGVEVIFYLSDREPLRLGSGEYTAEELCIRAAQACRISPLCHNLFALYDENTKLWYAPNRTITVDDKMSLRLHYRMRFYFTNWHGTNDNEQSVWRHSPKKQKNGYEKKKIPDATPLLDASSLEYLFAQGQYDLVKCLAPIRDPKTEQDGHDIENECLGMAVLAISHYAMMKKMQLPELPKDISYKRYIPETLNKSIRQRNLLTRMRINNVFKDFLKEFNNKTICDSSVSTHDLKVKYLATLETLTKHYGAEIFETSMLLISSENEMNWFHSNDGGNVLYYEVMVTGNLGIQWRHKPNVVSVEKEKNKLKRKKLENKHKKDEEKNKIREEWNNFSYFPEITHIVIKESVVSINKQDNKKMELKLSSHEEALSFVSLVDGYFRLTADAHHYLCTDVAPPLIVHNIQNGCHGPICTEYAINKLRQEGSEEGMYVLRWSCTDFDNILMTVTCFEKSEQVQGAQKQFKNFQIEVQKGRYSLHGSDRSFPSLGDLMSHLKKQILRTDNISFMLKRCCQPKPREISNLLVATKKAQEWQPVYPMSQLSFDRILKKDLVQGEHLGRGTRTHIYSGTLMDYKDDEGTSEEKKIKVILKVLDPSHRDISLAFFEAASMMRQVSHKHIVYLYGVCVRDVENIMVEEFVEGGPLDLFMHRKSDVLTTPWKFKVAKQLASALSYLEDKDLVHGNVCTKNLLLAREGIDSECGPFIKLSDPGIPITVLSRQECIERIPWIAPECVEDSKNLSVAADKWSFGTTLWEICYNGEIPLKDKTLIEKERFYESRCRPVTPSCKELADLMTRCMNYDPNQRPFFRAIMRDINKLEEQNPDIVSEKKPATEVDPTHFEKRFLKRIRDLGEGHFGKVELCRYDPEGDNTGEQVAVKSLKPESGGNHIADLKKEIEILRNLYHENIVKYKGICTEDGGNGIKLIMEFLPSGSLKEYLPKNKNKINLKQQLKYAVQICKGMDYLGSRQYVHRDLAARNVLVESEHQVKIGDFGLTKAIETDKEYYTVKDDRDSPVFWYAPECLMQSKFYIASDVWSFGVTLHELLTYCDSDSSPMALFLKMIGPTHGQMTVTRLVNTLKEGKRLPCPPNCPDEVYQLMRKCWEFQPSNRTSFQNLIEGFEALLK

Cc1cnc(Nc2ccc(N3CCC(N(C)CCO)CC3)c(F)c2)nc1-c1cnn(C(C)C)c1 [FM, 2-((1-(2-fluoro-4-((4-(1-isopropyl-1H-pyrazol-4-yl)-5-methylpyrimidin-2-yl)amino)phenyl)piperidin-4-yl)(methyl)amino)ethan-1-ol]
concentration at 1 h [1, 6]: 1040 ± 375 ng/mL | concentration at 2 h [1, 6]: 638 ± 168 ng/mL | concentration at 4 h [1, 6]: 292 ± 101 ng/mL | concentration at 8 h ([1]; BALB/c nude, mouse, plasma, oral, 30 mg/kg, repeated, 8 h, read-out: FM concentration, Plasma): 106 ± 84.1 ng/mL | concentration at 12 h ([1]; BALB/c nude, mouse, plasma, oral, 30 mg/kg, repeated, 12 h, read-out: FM concentration, Plasma): 19.3 ± 12.9 ng/mL | concentration at 24 h ([1]; BALB/c nude, mouse, plasma, oral, 30 mg/kg, repeated, 24 h, read-out: FM concentration, Plasma): 5.56 ± 4.97 ng/mL | Kp ([1]; BALB/c nude, mouse, 30 mg/kg, AUC(0–24h) of spleen higher than that of plasma, repeated oral 30 mg/kg): 17.9 | Kp ([1]; BALB/c nude, mouse, 30 mg/kg, repeated oral 30 mg/kg, read-out: Cmax of spleen higher than that of plasma): 14.1 | concentration at 0 h [1, 7]: 69 ± 44.8 ng/g | concentration at 0.25 h ([1]; BALB/c nude, mouse, spleen, oral, 30 mg/kg, repeated, 0.25 h, read-out: FM concentration, Spleen): 3700 ± 1440 ng/g | concentration at 0.5 h [1, 7]: 12100 ± 1910 ng/g | concentration at 1 h [1, 7]: 17100 ± 6420 ng/g | concentration at 2 h [1, 7]: 12200 ± 4390 ng/g | concentration at 4 h [1, 7]: 6180 ± 1680 ng/g | concentration at 8 h ([1]; BALB/c nude, mouse, spleen, oral, 30 mg/kg, repeated, 8 h after the last administration, read-out: FM concentration, Spleen): 2150 ± 1390 ng/g | concentration at 12 h ([1]; BALB/c nude, mouse, spleen, oral, 30 mg/kg, repeated, 12 h after the last administration, read-out: FM concentration, Spleen): 391 ± 181 ng/g | concentration at 0 h [1, 8]: 71.8 ± 44.3 ng/g | concentration at 0.5 h [1, 8]: 33100 ± 22700 ng/g | concentration at 2 h [1, 8]: 19300 ± 20700 ng/g | concentration at 4 h [1, 8]: 11700 ± 8600 ng/g | concentration at 8 h ([1]; BALB/c nude, mouse, stomach, oral, 30 mg/kg, repeated, 8 h, read-out: FM concentration, Stomach): 3500 ± 5190 ng/g | concentration at 12 h ([1]; BALB/c nude, mouse, stomach, oral, 30 mg/kg, repeated, 12 h, read-out: FM concentration, Stomach): 2490 ± 2530 ng/g | Cmax [1, 9]: 1280 ± 455 ng/mL | half-life [1, 9]: 2.85 ± 1.14 h | AUC(0-t) ([1]; BALB/c nude, mouse, Plasma, repeated oral 30 mg/kg, read-out: AUC0–24 h): 3740 ± 704 ng·h/mL | Cmax [1, 10]: 18100 ± 5680 ng/g | half-life [1, 10]: 2.37 ± 0.58 h | Cl ([1]; Plasma, repeated oral 30 mg/kg): 137 ± 31.8 mL/min/kg | Vdss ([1]; Plasma, repeated oral 30 mg/kg): 32.81 ± 11.21 L/kg | AUC0–24 h ([1]; Spleen, repeated oral 30 mg/kg): 67200.44 ± 11858.88 ng^.h/mL | GFP^+ tumor cells in PB ([2]; 12 hours after the 17th administration, 30 mg/kg): 11.77 ± 5.5% | GFP^+ tumor cells in PB [2, 11]: 19.75 ± 12.93% | GFP^+ tumor cells in spleen [2, 11]: 17.12 ± 8.15% | weight of spleen ([2]; repeated administration, 12 hours after the last administration, untreated 267.2 ± 56.8 mg): 167.5 ± 52.9 mg | p-STAT5 level down-regulated by ([2]; spleen, 8 hours after administration, 30 mg/kg repeated): 43.80 ± 1.59% | bioavailability (Bioavailability [3]): ~60% | bioavailability (Bioavailability [4]): ~60% | IC50 (JAK1): 0.69 µM | inhibition of the spleen growth (Ba/F3-JAK2^V617F cells; 15 mg/kg bid p.o.): 72.56% | median survival (Ba/F3-JAK2^V617F cells; 15 mg/kg bid p.o.): 30 days | inhibition of the spleen growth (Ba/F3-JAK2^V617F cells; 30 mg/kg bid p.o.): 97.92% | median survival (Ba/F3-JAK2^V617F cells; 30 mg/kg bid p.o.): 31 days | body weight during treatment (Ba/F3-JAK2^V617F cells; any dose): no obvious body weight decrease | spleen suppression rate ([5]; 15 mg/kg bid p.o.): -35.67% | median survival time ([5]; 15 mg/kg bid p.o.): 22 days | spleen suppression rate ([5]; 30 mg/kg bid p.o.): -79.79% | median survival time ([5]; 30 mg/kg bid p.o.): 25 days | spleen suppression rate ([5]; 45 mg/kg bid p.o.): -101.08% | median survival time ([5]; 45 mg/kg bid p.o.): 25 days | visceral toxicity, tissues of treated mice ([5]; data not shown): did not cause obvious visceral toxicity
